This test has as its system A/Washington/29/2009 (H1N1) H275Y. It is filed as cell-based, influenza A virus.

Each structure is given as a SMILES string. “And” between values parts separate entries of the source, which are not always exact repeats. Equal entries are not always repeated.

For `CC1=C(COCCC(C)(C)C)C(=O)N(Nc2ccc(C(F)(F)F)c(Cl)n2)C1=O` [felezonexor, 3-[(3,3-dimethylbutoxy)methyl]-1-{[6-chloro-5-(trifluoromethyl) (2-pyridyl)]amino}-4-methylazoline-2,5-dione], the “Virus titer AVG” value is 2.67 log10TCID50/mL and 3.83 log10TCID50/mL and 4.50 log10TCID50/mL; the “Virus titer, replicates 1-3” value is 2.75 log10TCID50/mL (2×) and 3.50 log10TCID50/mL and 4.50 log10TCID50/mL (3×) and 2.50 log10TCID50/mL and 3.75 log10TCID50/mL and 4.25 log10TCID50/mL.

`CCOC(=O)C1=C[C@@H](OC(CC)CC)[C@H](NC(C)=O)[C@@H](N)C1` [Oseltamivir, oseltamivir, reference compound]: the “DIF (Difference from Control)” value is given as -0.92 log10TCID50/mL; the “Virus titer AVG” value is listed as 3.92 log10TCID50/mL; the “Virus titer, replicates 1-3” value is 3.75 log10TCID50/mL (2×) and 4.25 log10TCID50/mL.

The values above are taken from patent publication US20230158005A1 (priority 2020, published 2023).
